According to US20250019370A1, “L-LYSINE SALT OF 4-CHLORO-5-[4-(2,6-DICHLOROPHENYL)SULFONYLPIPERAZIN-1-YL]-1-BENZOFURAN-2-CARBOXYLIC ACID AND VARIOUS FORMS THEREOF” (ENYO PHARMA, priority 2023, published 2025):

What was measured:
[1] = Solubility kinetics in FeSSIF medium; assay type: physicochemical; settings: for Soluble fraction: 37 ° C.; for Soluble fraction / pH: listed as EYP001 L-Lysine salt (Form I); for pH: pH printed with the soluble fraction
[2] = Pharmacokinetic study Experiment #3, oral administration in rats; assay type: in vivo, rat; settings: 10 mg EqEYP001/Kg
Protocol: (§1) In a third study (Experiment #3), EYP001 and EYP001 L-lysine salt Form I in aqueous formulations (0.5% CMC, 0.25% Tween 80, water) were orally administrated at a dose of 10 mg EqEYP001/Kg in 6-8 male rats for each compound. Blood samples were taken at 0.25 h, 0.5 h, 1 h, 2 h, 4 h, 6 h, 8 h, 12 h, and 24 h after oral administration.

[3] = Pharmacokinetic study Experiment #2, oral administration in rats; assay type: in vivo, rat; settings: 50 mg EqEYP001/Kg
Protocol: as §1, with “second” for “third”, “#2),” for “#3),”, “50” for “10”, “8” for “6-8”

[4] = Solubility kinetics in pH 4.5 acetate buffer; assay type: physicochemical; settings: for Soluble fraction: 37 ° C., listed as EYP001 L-Lysine salt (Form I)
[5] = Solubility kinetics in FaSSIF medium; assay type: physicochemical
Protocol: The solubility kinetics of the salt forms as well as the native EYP001 free acid form were determined in FaSSIF and FeSSIF media, and in a pH 4.5 acetate buffer as detailed below: The samples were prepared by adding an excess of each tested bulk (salt or native EYP001) to a given volume of test medium. The suspension was stirred by orbital stirring over 1 hour (in both pH 4.5 acetate buffer and FeSSIF medium) or 24 hours ([…] medium) at 37° C., protected from light. In FaSSIF medium, the soluble concentration was assessed after 24 hours of stirring. […] At each time point, the “supernatant” was isolated and diluted in a solvent mixture allowing its injection into the chromatographic system. The concentration in solution in the test medium was determined by HPLC with external standardization.

[6] = Thermogravimetric analysis (TGA), mass losses upon heating; assay type: physicochemical; settings: listed as EYP001 L-lysine salt (sample A)
Protocol: Thermogravimetric analysis was performed on a TA Instruments TGA Hi-Res 2950 apparatus equipped with an evolved gas analysis furnace. A sample was placed in an opened aluminium basket and analysed according to the following conditions: […]

[7] = male rats, versus EYP001 free acid

Question: Which “solubility compared to EYP001 free acid and EYP001 Potassium salt” value ([1]; 37° C.) does the source give for NCCCC[C@H](N)C(=O)O.O=C(O)c1cc2c(Cl)c(N3CCN(S(=O)(=O)c4c(Cl)cccc4Cl)CC3)ccc2o1 [EYP001 L-lysine salt Form I, L-lysine salt of 4-chloro-5-[4-(2,6-dichlorophenyl)sulfonylpiperazin-1-yl]-1-benzofuran-2-carboxylic acid] here?
Answer: Its value is “higher solubility”.

Question: And the Soluble fraction ([1]; after 0.5 h)?
Answer: Its Soluble fraction is 0.44 mg/mL of EYP001.

Question: And the Soluble fraction ([1]; after 1 h)?
Answer: Its Soluble fraction is 0.46 mg/mL of EYP001.

Question: And the pH ([1]; after 0.5 h)?
Answer: Its pH is “(pH = 5.0)”.

Question: What about the pH ([1]; after 1 h) of the same molecule?
Answer: Its pH is “(pH = 5.0)”.

Question: What about the “Mean AUC0-24” value ([2]; male rats, aqueous formulation) of the same molecule?
Answer: The value was 7311 ng·h/mL.

Question: What about the “Mean Cmax” value ([2]; male rats, aqueous formulation) of the same molecule?
Answer: Its value is 2947 ng/mL.

Question: And the “% increase/EYP001 (AUC0-24)” value [2, 7]?
Answer: The value was “+84%”.

Question: And the “% increase/EYP001 (Cmax)” value [2, 7]?
Answer: Its value is “+118%”.

Question: And the “exposure and C max compared to EYP001 free acid” value ([2]; rat)?
Answer: Its value is “superiority”.

Question: What about the “variability of the C max (CV %) compared to EYP001 free acid” value ([2]; rat) of the same molecule?
Answer: The value was “strongly reduced”.

Question: And the “variability of the exposure (CV %) compared to EYP001 free acid” value ([2]; rat)?
Answer: Its value is “strongly reduced”.

Question: What about the “Mean AUC0-24” value ([3]; male rats, aqueous formulation) of the same molecule?
Answer: The value was 42500 ng·h/mL.

Question: What about the “Mean Cmax” value ([3]; male rats, aqueous formulation) of the same molecule?
Answer: The value was 7870 ng/mL.

Question: And the “% increase/EYP001 (AUC0-24)” value [3, 7]?
Answer: The value was “+47%”.

Question: And the “% increase/EYP001 (Cmax)” value [3, 7]?
Answer: Its value is “+41%”.

Question: And the “exposure and C max compared to EYP001 free acid” value ([3]; rat)?
Answer: The value was “superiority”.

Question: What about the “solubility compared to EYP001 free acid, Benethamine, Zinc, Benzathine and Ethylene diamine salts” value ([4]; 37° C.) of the same molecule?
Answer: Its value is “much higher solubility”.

Question: And the Soluble fraction ([4]; after 0.5 h)?
Answer: Its Soluble fraction is 0.010 mg/mL of EYP001.

Question: What about the Soluble fraction ([4]; after 1 h) of the same molecule?
Answer: The Soluble fraction was 0.006 mg/mL of EYP001.

Question: And the “solubility compared to EYP001 free acid, Piperazine, Morpholine, Imidazole, Benethamine, Zinc and Cyclohexylamine salts” value ([5]; 37° C.)?
Answer: Its value is “higher solubility”.

Question: And the Soluble fraction ([5]; 37° C., after 24 h)?
Answer: Its Soluble fraction is 0.31 mg/mL of EYP001.

Question: What about the pH ([5]; pH given with the soluble fraction, after 24 h) of the same molecule?
Answer: The pH was 6.6.

Question: What about the “onset temperature of thermal decomposition (TGA)” value ([6]; heater ramp 10 ° C./min, nitrogen) of the same molecule?
Answer: Its value is 254 °C.

Question: What about the “mass loss before the beginning of thermal decomposition (TGA)” value ([6]; upon heating) of the same molecule?
Answer: Its value is “no mass loss”.
